In patent publication US11485751B2, “Apramycin derivatives” (WAYNE STATE UNIVERSITY, priority 2017, dated 2022):
≈ marks a conversion by molar mass, not a printed value.

Key:
[1] = test system: AG212, Escherichia coli ATCC25922; experiment: MIC reference strain AG212; assay type: cell-based; details: Escherichia coli; reference strain ATCC25922; read-out: MIC AG212 E. coli
Text: (§1) Minimal inhibitory concentrations (MIC) have been determined by broth microdilution assays (CLSI. Methods for Dilution Antimicrobial Susceptibility Tests for Bacteria That Grow Aerobically; Approved Standard—Tenth Edition. CLSI document M07-A10. Wayne, Pa.: Clinical and Laboratory Standards Institute; 2015.).
(§2) Table 4 and 5 show the antibacterial activity of the compounds of the invention against bacterial reference strains (table 4) and against representative clinical isolates (table 5).
(§3) Legend to Tables: GEN, gentamicin; AMK, amikacin; PLZ, plazomicin; APR, apramycin; AG212, Escherichia coli ATCC25922; AG215, Klebsiella pneumonia; AG220, Pseudomonas aeruginosa ATCC27853; AG225, Acinetobacter baumannii pittii; AG290, Enterobacter cloacae; […], Mycobacterium smegmatis. MICs for AG192 have been determined in the presence of 0.5 μg/mL of ampicillin in the medium to mimic the synergistic effect of aminoglycoside and β-lactam antibiotics combination therapy in the treatment of Enterococcus infections in humans.

[2] = test system: clinical isolates carrying AAC(3)-IV; experiment: MIC broth microdilution, AAC(3)-IV; assay type: cell-based; details: clinical isolates, IMM Univ. Zurich; AAC(3)-IV; read-out: MIC AAC(3)-IV
Text: as §1
(§4) Minimal inhibitory concentrations (MICs, […]) against clinical isolates from Institute of Medical Microbiology, Univ. Zurich, and the IC50 values for bacterial, human mitochondrial and human cytosolic ribosomes are indicated.
(§5) Minimal inhibitory concentrations (μg/ml) against clinical isolates from Institute of Medical Microbiology, Univ. Zurich, and the IC50 values for bacterial, human mitochondrial and human cytosolic ribosomes are indicated.
(§6) The Minimal inhibitory concentrations (MICs, μg/ml) against clinical isolates from Institute of Medical Microbiology, Univ Zurich, and the IC50 values for bacterial, human mitochondrial and human cytosolic ribosomes are indicated.

[3] = test system: Engineered E. coli pH427 rmtF; experiment: Activity against G1405-methylated 16S-rRNA, E. coli pH427 rmtF; assay type: cell-based
Text: as §1

[4] = test system: AG215, Klebsiella pneumonia; experiment: MIC reference strain AG215; assay type: cell-based; details: Klebsiella pneumoniae, reference strain; read-out: MIC AG215 K. pneumonia
Text: as §1, §2, §3

[5] = test system: AG001 E. coli WT; experiment: Antibacterial activity, clinical isolate AG001; assay type: cell-based; set-up: unit not given here
Text: as §1, §2

[6] = test system: AG220, Pseudomonas aeruginosa ATCC27853; experiment: MIC reference strain AG220; assay type: cell-based; details: Pseudomonas aeruginosa, ATCC27853, reference strain ATCC27853; read-out: MIC AG220 P. aeruginosa
Text: as §1, §2, §3

[7] = test system: Engineered E. coli pH426 rmtC; experiment: Activity against G1405-methylated 16S-rRNA, E. coli pH426 rmtC; assay type: cell-based
Text: as §1

[8] = test system: AG031 P. aer. APH(3′)-II; experiment: Antibacterial activity, clinical isolate AG031; assay type: cell-based; set-up: unit not given here
Text: as §1, §2

[9] = test system: AG003 E. coli AAC(3)-II; experiment: Antibacterial activity, clinical isolate AG003; assay type: cell-based
Text: as §1, §2

[10] = test system: AG173 E. coli AAC(3)-IV; experiment: Antibacterial activity, clinical isolate AG173; assay type: cell-based
Text: as §1, §2

[11] = test system: SZ380, Mycobacterium smegmatis; experiment: MIC reference strain SZ380; assay type: cell-based; details: Mycolicibacterium smegmatis, reference strain; read-out: MIC SZ380 M. smegmatis
Text: as §1, §2, §3

[12] = test system: AG055 E. coli WT; experiment: Antibacterial activity, clinical isolate AG055; assay type: cell-based; set-up: unit not given here
Text: as §1, §2

[13] = test system: human cytosolic ribosomes; experiment: in-vitro translation assay, human cytosolic ribosomes; assay type: biochemical
Text: (§7) IC50 values for bacterial, human chimeric, and rabbit reticulocyte ribosomes have been determined by in-vitro translation assays as described previously (Proc. Nat. Ac. Sci USA 2012, 109(27):10984-10989).
as §4

[14] = test system: AG038 MRSA; experiment: Antibacterial activity, clinical isolate AG038; assay type: cell-based; set-up: unit not given here
Text: as §1, §2

[15] = test system: isolates carrying apmA; experiment: MIC broth microdilution, apmA; assay type: cell-based; details: apmA resistance gene
Text: as §1, with “2015.). […]” for “2015.).”
as §5, §6

[16] = test system: Engineered E. coli pH425 rmtB; experiment: Activity against G1405-methylated 16S-rRNA, E. coli pH425 rmtB; assay type: cell-based
Text: as §1

[17] = test system: bacterial ribosomes; experiment: in-vitro translation assay, bacterial ribosomes; assay type: biochemical
Text: as §7, §4

[18] = test system: Engineered E. coli AG103 armA; experiment: Activity against G1405-methylated 16S-rRNA, E. coli AG103 armA; assay type: cell-based
Text: as §1

[19] = test system: Engineered E. coli pH430 WT; experiment: Activity, engineered E. coli pH430 WT; assay type: cell-based; details: wild type
Text: as §1

[20] = test system: WT clinical isolates; experiment: MIC broth microdilution, WT; assay type: cell-based; details: read-out: MIC WT, clinical isolates, IMM Univ. Zurich; wild type
Text: as §1, §4, §5, §6

[21] = test system: ATCC19977 M. abcessus; experiment: MIC reference strain ATCC19977; assay type: cell-based; details: read-out: MIC ATCC19977 M. abcessus
Text: as §1, §2

[22] = test system: AG033 P. aer. APH(3′)-II AAC(6′)-I; experiment: Antibacterial activity, clinical isolate AG033; assay type: cell-based; set-up: unit not given here
Text: as §1, §2

[23] = test system: AG290, Enterobacter cloacae; experiment: MIC reference strain AG290; assay type: cell-based; details: Enterobacter cloacae; reference strain; read-out: MIC AG290 E. cloacae
Text: as §1, §2, §3

[24] = test system: AG032 P. aer. APH(3′)-II; experiment: Antibacterial activity, clinical isolate AG032; assay type: cell-based; set-up: unit not given here
Text: as §1, §2

[25] = test system: human mitochondrial ribosomes; experiment: in-vitro translation assay, human mitochondrial (human chimeric) ribosomes; assay type: biochemical
Text: as §7, §4

[26] = test system: AG039 MRSA AAC(6′)-I ANT(4′)-I; experiment: Antibacterial activity, clinical isolate AG039; assay type: cell-based
Text: as §1, §2

[27] = test system: Engineered E. coli pH424 armA; experiment: Activity against G1405-methylated 16S-rRNA, E. coli pH424 armA; assay type: cell-based
Text: as §1

[28] = test system: AG225, Acinetobacter baumannii pittii; experiment: MIC reference strain AG225; assay type: cell-based; details: Acinetobacter baumannii, reference strain; read-out: MIC AG225 A. baumannii
Text: as §1, §2, §3

[29] = test system: AG042 MRSA AAC(6′)-I ANT(4′)-I APH(2′); experiment: Antibacterial activity, clinical isolate AG042; assay type: cell-based; set-up: unit not given here
Text: as §1, §2

Row | Compound | MIC [1] | MIC [4] | Antibacterial activity AG001 E. coli WT [5] | MIC [6] | Antibacterial activity AG031 P. aer. APH(3′)-II [8] | Antibacterial activity AG003 E. coli AAC(3)-II [9] | Antibacterial activity AG055 E. coli WT [12] | Antibacterial activity AG038 MRSA [14] | Activity E. coli AG103 armA [18] | Activity E. coli pH430 WT [19] | MIC [21] | Antibacterial activity AG033 P. aer. APH(3′)-II AAC(6′)-I [22] | MIC [23] | Antibacterial activity AG032 P. aer. APH(3′)-II [24] | Antibacterial activity AG039 MRSA AAC(6′)-I ANT(4′)-I [26] | MIC [28] | Antibacterial activity AG042 MRSA AAC(6′)-I ANT(4′)-I APH(2′) [29] | further results
1 | CNC1C(OC2OC(CO)C(N)C(O)C2O)OC2CC(N)C(OC3CC(O)C(N)CC3N)OC2C1O (stereo not shown) [DC169, 5-Deoxy-apramycin] | 4 µg/mL | 2 µg/mL | 4 | 4 µg/mL | 8 | 4 | 4 | 2-4 | 1 | 4 | 1 µg/mL (≈ 1.91 µM) | 16 | 2 µg/mL | 8 | 2 | 4 µg/mL | 4 | MIC [2]: > 32 µg/mL; Activity E. coli pH427 rmtF [3]: 4; Activity E. coli pH426 rmtC [7]: 4; Antibacterial activity AG173 E. coli AAC(3)-IV [10]: 32; MIC [11]: 0.125 µg/mL; IC50 [13]: 42 µM; MIC [15]: 16 µg/mL (≈ 30.6 µM); Activity E. coli pH425 rmtB [16]: 4; IC50 [17]: 0.06 µM; MIC [20]: 4 µg/mL (≈ 7.64 µM); IC50 [25]: 45 µM; Activity E. coli pH424 armA [27]: 2
2 | CN[C@@H]1[C@@H](O)[C@@H](O[C@@H]2[C@@H](O)[C@H](O[C@H]3OC(CNCCO)=CC[C@H]3N)[C@@H](N)C[C@H]2NC(=O)[C@@H](O)CCN)OC[C@]1(C)O [PLZ, plazomicin, reference compound] | 0.5 to 1 µg/mL | 0.25 to 0.5 µg/mL | 2-4 | 2 to 4 µg/mL | 4 | 2-4 | 2-4 | 2-4 | >32 | 0.5 | 4 µg/mL (≈ 6.75 µM) | 16-32 | 0.5 µg/mL | 4 | 2-4 | 2 µg/mL | 2 | –
